From paper PMC10454728, “A Comparative Study on the Lysosomal Cation Channel TMEM175 Using Automated Whole-Cell Patch-Clamp, Lysosomal Patch-Clamp, and Solid Supported Membrane-Based Electrophysiology: Functional Characterization and High-Throughput Screening Assay Development” (International Journal of Molecular Sciences, 2023)
“And” between values parts separate entries of the source, which are not always exact repeats. Equal entries are not always repeated. “Also recorded” adds a separate entry of the source. Where two headings read alike, the source gives them in different places.

Tests used:
TMEM175 [1] = target: T1, TMEM175 (Homo sapiens, UniProt Q9BSA9); test: SSME K+ flux compound assay on purified lysosomes overexpressing TMEM175 (SURFE2R 96SE); format: biochemical
T1 sequence (Q9BSA9 1-504): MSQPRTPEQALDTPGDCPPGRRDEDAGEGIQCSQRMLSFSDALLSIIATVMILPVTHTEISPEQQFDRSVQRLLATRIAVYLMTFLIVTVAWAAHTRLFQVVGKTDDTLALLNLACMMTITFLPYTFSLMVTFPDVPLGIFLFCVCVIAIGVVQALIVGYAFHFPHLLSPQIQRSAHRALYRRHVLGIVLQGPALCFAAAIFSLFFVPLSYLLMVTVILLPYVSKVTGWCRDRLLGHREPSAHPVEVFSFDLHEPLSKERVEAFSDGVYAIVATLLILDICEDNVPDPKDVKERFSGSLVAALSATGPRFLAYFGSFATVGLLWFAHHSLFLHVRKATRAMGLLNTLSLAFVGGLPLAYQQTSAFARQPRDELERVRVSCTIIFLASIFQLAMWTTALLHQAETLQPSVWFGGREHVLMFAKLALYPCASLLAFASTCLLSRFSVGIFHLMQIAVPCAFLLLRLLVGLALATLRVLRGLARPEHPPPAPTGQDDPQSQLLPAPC
Experimental: In brief, compound measurements using SSME are performed in a three-step process (Figure 6B). First, TMEM175-mediated K^+ translocation is measured through 50 mM K^+ concentration jumps. This represents the baseline current of TMEM175 activity (I0). […] Third, the activation through a 50 mM K^+ concentration jump is repeated, this time in the presence of the compound to record the modulated TMEM175 current (I). In this process, each individual sensor of the 96-well sensor plate is only exposed to a single concentration of the compound. The relative current amplitude I/I0 is used as a measure of the compound effect and averaged across sensors.
We applied 50 mM K^+ concentration jumps in the absence and presence of different compound concentrations to derive information about compound effects on K^+ flux through TMEM175; (B) Time dependence of recorded peak current amplitudes for the complete workflow, which involves multiple sequential measurements. […] The recording of each sensor well starts with the application of a control measurement, rinsing non-activating solution across the sensor (baseline recording). Afterwards, we performed three solution exchange measurements from 50 mM NaCl to 50 mM KCl to measure K^+ flux through TMEM175 (baseline TMEM175 current, I0). We then rinsed the sensor with non-activating solution containing the compound at a given concentration, followed by incubation of 15 min to equilibrate the sensors with the compound. Subsequently, the solution exchange from 50 mM NaCl to 50 mM KCl is repeated twice, but in the presence of the given compound concentration to determine the modulated peak current I. Afterwards, we repeated the measurement in the absence of the compound three times (wash-out) to recover the non-modulated TMEM175 current. We subtracted the average artifact current recorded with control lysosomes from I and I0 (Figure 1K), without considering off-target effects of the tested compound. […] Success rates were determined based on the QC criteria provided in the Methods section. […] We determined average values, AVGpos and AVGneg, and standard deviations, SDpos and SDneg, of the recorded peak currents. […] Error bars represent the SEM obtained from automated data analysis using DataControl96, based on variations of the currents obtained with the TMEM175 sample. Each compound concentration was recorded with at least N = 8 sensors. […] Imin was always fixed to 0 for inhibitors or 1 for enhancers, as indicated. […] A total of 50 µL of 0.1 mM octadecanethiol in isopropanol was added to each sensor well, following incubation for 30 min at room temperature to form an alkanethiol monolayer on the sensor surface. Subsequently, the sensors were washed twice with isopropanol and three times with ddH2O, before dry-tapping on a tissue. The subsequent process of sensor coating with lipid and lysosomes was carried out manually for the SURFE^2R N1 and automated with the SURFE^2R 96SE serving as a pipetting robot. In both cases, 1.5 µL of 7.5 mg/mL 1,2-diphytanoyl-sn-glycero-3-phosphocholine (DPhPC) in n-decane was added to the center of the circular gold surface, followed by the addition of 50 µL of non-activating solution to form the SSM. The composition of the non-activating solution was adjusted for each experiment (Table 2). […] SSM-coated 96-well sensor plates were stored at −80 °C before use.

TMEM175 [2] = target: T1, TMEM175; test: Whole-cell automated patch-clamp (APC) Cs+ flux assay, SyncroPatch 384i, HEK293 overexpressing TMEM175; format: cell-based
Experimental: To validate the APC assay, we compared currents between TMEM175-overexpressing cells and control HEK293 UT cells. […] In our compound application protocol, which was used to evaluate compound potencies, we consistently administered tool compounds to assess their impact on TMEM175 activity (Figure 7C).
The voltage protocol generation and data collection were performed with PatchControl384 v1.9.0 and analyzed with DataControl384 v2.2.0. A multi-hole, medium resistance chip with four patch-clamp holes per well was used for recording.
DMSO remained constant at 0.2% and BSA at 0.05% in the external solution throughout the assay, if not stated otherwise.
The voltage protocol applied for the investigation of the tool compounds (Figure 7) consisted of a 500 ms ramp from −80 mV to +80 mV, followed by a 400 ms step from −80 mV to +80 mV before returning to the holding potential of 0 mV (Figure 7B). The maximum outward current amplitude obtained at +80 mV from the ramp section was used for analysis. To investigate the blinded test compounds (Figure 8), an alternative voltage protocol was applied. […] The maximum outward current amplitude obtained at 0 mV from the voltage step section was used for analysis. In both voltage protocols, voltage sweeps were repeated every 10 s and currents sampled at 10 kHz.
The application protocol for agonists consisted of two additions of extracellular physiological solution for a minimum of 3 min, followed by the external application of the test compound for a minimum of 2 min (Figure 7C).
Currents recorded after compound addition were normalized to the baseline current before compound addition, averaged, and plotted over the compound concentration to determine the EC50 and IC50 values.

TMEM175 [3] = target: T1, TMEM175; test: SSME K+ flux compound assay on purified lysosomes overexpressing TMEM175 (SURFE2R 96SE); format: biochemical; remark: listed apart in the source
TMEM175 [4] = settings: cited from earlier work; for IC50: read-out: IC50, literature
[5] = test system: control lysosomes purified from HEK293 cells expressing endogenous TMEM175; test: SSME off-target compound effects on control lysosomes (SURFE2R N1)
Experimental: A solution exchange of 50 mM Na^+ against 50 mM K^+ was used to stimulate TMEM175. […] Average peak currents and SEM, recorded from N = 5 sensors, are shown. […] Each sensor was used for four measurements in the following sequence: in the absence of compound, in the presence of 100 nM compound, in the presence of 10 µM compound, and in the absence of compound (wash-out). Datasets were normalized to the peak current recorded in the absence of compound before averaging. […] The three different experimental conditions shown in one graph were applied on the same sensor. Average peak currents and SD from N = 4 sensors are shown, and no normalization was applied.

TMEM175 [6] = target: T1, TMEM175; test: SSME K+ flux on TMEM175 lysosomes (SURFE2R N1): pH, pH gradient, intra-lysosomal application
Experimental: A solution exchange of 50 mM Na^+ against 50 mM K^+ was used to stimulate TMEM175. Datasets for each pH were measured on different sensors. […] Average peak currents and SEM, recorded from N = 5 sensors, are shown. Imax was fixed in the subsequent fitting with the equation I = Imax − (Imax − Imin)/(1 + (c/EC50)^n). […] Both datasets—symmetrical pH 7.6 (green) and pH gradient (blue) conditions—were recorded on the same sensor, with N = 5 sensors in total. […] Currents in the presence and the absence of a pH gradient were recorded with different sensors. Each sensor was used for four measurements in the following sequence: in the absence of compound, in the presence of 100 nM compound, in the presence of 10 µM compound, and in the absence of compound (wash-out). Datasets were normalized to the peak current recorded in the absence of compound before averaging. […] Sensors were prepared with TMEM175 lysosomes that were pre-loaded via 1:10 dilution in zinc containing non-activating solution, followed by 10 pulses of sonication as described in the Methods section (Section 4.2.5). […] The three different experimental conditions shown in one graph were applied on the same sensor. Average peak currents and SD from N = 4 sensors are shown, and no normalization was applied.
To test whether the pH is a relevant parameter affecting the efficacy of compounds, we tested the effect of compounds on TMEM175 currents under different pH conditions using the SURFE^2R N1 (Figure 9B–D).
To examine this, we conducted SSME experiments utilizing lysosomes that were pre-loaded with varying concentrations of zinc (Figure 9E). This enabled us to investigate the effects of zinc on TMEM175 activity when it interacts with the lysosomal side of TMEM175, closely simulating the conditions observed in whole-cell APC experiments (Figure 7E). […]
Datasets recorded with the SURFE^2R N1 are usually obtained with the same sensor, i.e., all concentration-dependent datapoints are obtained by sequential measurements. […]

[7] = Table 4 fit, currents normalized to current before compound
[8] = from dose-response fit, Figure 8

CCOC(=O)C1=C(N)Oc2ccc(Cl)cc2C1C(C#N)C(=O)OCC (centres unmarked) [SC-79]
n (Hill coefficient), SSME (TMEM175 [1]; Table 4 fit): 0.89 ± 0.6
Imax − Imin (nA), SSME (TMEM175 [1]; [7]): 0.09 ± 0.04 ^1 nA
Potentiation, SSME (TMEM175 [1]; [8]): 9 ± 4%
n (Hill coefficient), APC (TMEM175 [2]; Table 4 fit): 1.17 ± 0.38
Imax − Imin (nA), APC (TMEM175 [2]; [7]): 2.45 ± 1.02 nA
Current potentiation, APC (TMEM175 [2]; [8]): 245 ± 102% and 345 ± 102%
EC50 (TMEM175 [2]; test-compound voltage protocol, outward current at 0 mV, not corrected for off-target effects, read-out: EC50 (µM), APC): 62 µM and 61.8 µM
EC50 (TMEM175 [3]; 50 mM K+ jump, not corrected for artifacts or off-target effects): 2.9 ± 2.3 µM
Increase in TMEM175-mediated K+ flux, literature (TMEM175 [4]; 10 µM, +80 mV, ref [48]): two-fold
Effect on TMEM175 in whole-cell patch-clamp, literature (TMEM175 [4]; ref [6]): did not find any effect
Control current in presence of compound ([5]; 30 µM SC-79): −0.64 ± 0.27 nA

CCCCC1(C2CCCC2)Cc2cc(OCCCC(=O)O)c(Cl)c(Cl)c2C1=O (centres unmarked) [DCPIB]
EC50 (TMEM175 [1]; tool enhancers, K+ flux, 50 mM K+ jump, pH 7.6, 0 mV, artifact-corrected, read-out: Half saturation (EC50), SSME): 9.6 µM
EC50 (TMEM175 [2]): 16.7 µM
Effect of K+ concentration (driving force) on apparent EC50 (TMEM175 [3]; 2, 5, 10, 50 mM K+, 3, 10, 30 µM DCPIB): not affected
Increase in K+ flux through TMEM175, literature (TMEM175 [4]; 50 µM, +80 mV, ref [6]): eight-fold
Control current in presence of compound ([5]; 20 µM DCPIB): +0.69 ± 0.41 nA
Off-target effect compared to effect on TMEM175 lysosomes ([5]; 20 µM DCPIB): ~ 35%

Nc1ccncc1 [4-AP, 4-aminopyridine]
TMEM175 sample current in the presence of compound, SSME (TMEM175 [1]; 10 mM 4-AP, 50 mM K+ jump, not artifact-corrected): −1.22 ± 0.1 nA
Effect of 10 mM compound on TMEM175 K+ current, SSME (TMEM175 [1]; 50 mM K+ jump): full block
Signal block, APC (TMEM175 [2]; 1 mM 4-AP, over 125 plates): 73 ± 14%
Off-target signal potentiation on control lysosomes ([5]; 10 mM 4-AP): +380 pA
Artifact current of control lysosomes in presence of compound ([5]; 10 mM 4-AP, 50 mM K+ jump): −0.69 ± 0.37 nA
Off-target effect compared to effect on TMEM175 lysosomes ([5]; 10 mM 4-AP, opposite direction): ~ 8%
Effect on current of control lysosomes, H+ influx (pH jump) ([5]; 10 mM 4-AP, ΔpH 3.0): did not affect
Effect of 4-AP, SSME (SURFE2R N1) (TMEM175 [6]; pH 4.0 (no TMEM175 activity at this pH)): no effect

[Cl-].[Cl-].[Zn+2] [Zn, ZnCl2]
Effect of 10 mM compound on TMEM175 K+ current, SSME (TMEM175 [1]; 50 mM K+ jump): full block
IC50 in SSME relative to literature value (higher) (TMEM175 [1]; 4-AP vs largest literature value for K+ flux, zinc vs literature value): 50 fold
IC50 (TMEM175 [1]; K+ flux, 50 mM K+ jump, pH 7.6, 0 mV, external (cytosolic side) application, artifact-corrected, read-out: Half saturation (IC50), SSME): 1530 µM
Relative current, SSME (TMEM175 [1]; at 10 mM (highest concentration), relative to TMEM175 baseline current (100%)): 19.2 ± 4.6% (10 mM)
Signal enhancement, APC (TMEM175 [2]; 0.5 mM ZnCl2, over 125 plates): 301 ± 94%
Effect of raising zinc up to 10 mM, APC (TMEM175 [2]; 0.5 mM to 10 mM, listed as zinc): could not find any changes; also recorded: without further impacting the recorded currents
Relative current, APC (TMEM175 [2]; enhancers, (50 µM), relative to baseline current (100%)): 400 ± 40% (50 µM)
EC50 (TMEM175 [2]; tool compounds, Cs+ flux, outward current at +80 mV, 0.05% BSA, read-out: Half saturation (EC50), APC): 102 µM
IC50 (TMEM175 [4]; whole-organelle patch-clamp, ref [1]): 38 ± 13 µM
Off-target effect on control lysosomes ([5]; zinc, two highest concentrations): off-target inhibition
Effect at 50 µM, SSME (TMEM175 [6]; 50 µM zinc, lysosomal side (similar to external application)): did not observe any effect
IC50 (TMEM175 [6]; read-out: IC50, intra-lysosomal application, SSME (SURFE2R N1), lysosomes pre-loaded with zinc, zinc only inside): 700 ± 300 µM
